Measured values: US8058437B2, “(Pyrroloquinoxalinyl) pyrazinecarbohydrazide-oxalic acid co-crystal for treatment of cancer and other diseases” (Novelix Pharmaceuticals, Inc., priority 2008, dated 2011)
Values joined by “and” are separate entries in the source; they are usually repeats but may differ in a detail not shown here. Identical values can stand only once. Like-named read-outs stand apart in the source and are kept apart here.

Columns and labels:
[1] = Pharmacokinetic experiments in rats (IV, oral suspension, oral solution); assay type: in vivo; settings: rat; for concentration at 0.5 h / concentration at 1 h / concentration at 4 h / concentration at 8 h: oral; for bioavailability: adjusted for dose
Procedure: The oral suspension formulation was prepared by suspending the test article in 5% PEG-200/95% of a 0.5% solution of methylcellulose. The concentration of the test article was such that a dosing volume of 10 mL/kg delivered the intended dose level. The oral solution formulations of NVX-144 and NVX-412 were prepared by dissolving the test article in 10% by volume dimethyl acetamide, followed by 60% by volume PEG-400, and then adding slowly a solution of 30% Captisol® in 50 mM lactic acid to provide the remaining 30% of volume. The concentration of the test article was such that a dosing volume of 10 mL/kg delivered the intended dose level. The IV formulation of NVX-412 was prepared by dissolving the test article in 10% by volume dimethyl acetamide, followed by 10% by volume PEG-400, and then adding slowly a solution of 10% Captisol® in 50 mM lactic acid to provide the remaining 80% of volume. The concentration of the test articles was such that a dosing volume of 2.5 mL/kg delivered the intended dose level. The doses administered were based on the body weight of each animal taken shortly before dosing. The formulations were used immediately after preparation.
A total of 15 rats were assigned to the study. Five groups of three male rats each comprised the study. Each group was treated once by oral gavage or intravenous injection via the tail vein as specified in Table 3 below.
The animals were fasted overnight prior to dosing and the feed returned approximately 2 hours post-dosing. The dose for each animal was based on the most recent body weight. Oral doses were administered by gavage. Animals received 10 mL/kg per single oral dose. Intravenous doses were administered by tail vein injection. The dose for each animal was based on the most recent body weight. Animals were dosed at 2.5 mL/kg per single intravenous dose.
Blood was collected from the animals in Groups 1 through 5 for pharmacokinetic analysis. Approximately 0.3 mL of blood was collected in potassium EDTA tubes via the orbital plexus at four time points (30 minutes, 1 hour, 4 hours, and 8 hours post-dose) from each rat treated by the oral route, and the blood samples were processed to prepare plasma. Blood was collected at four time points (5 minutes, 30 minutes, 1 hour, and 2 hours post-dose) from each rat treated by the intravenous route, and the blood samples were processed to prepare plasma. Animals were terminated (without necropsy) following their final sample collection.
The whole blood samples were centrifuged (˜1500×g) for a minimum of 10 minutes in a refrigerated centrifuge (set at ˜5° C.). Plasma was prepared and transferred within 30 minutes of blood collection/centrifugation to appropriately labeled tubes. The tubes were then frozen and stored in the dark at ≦−70° C. until analysis. The plasma samples were analyzed by LC-MS/MS to determine the plasma concentrations of NVX-144 and NVX-412. Pharmacokinetic analysis of the plasma concentration data was conducted using non-compartmental analysis with WinNonlin Version 4.1.

[2] = Salt formation experiments / physical characteristics of solid forms; assay type: physicochemical; settings: free base prepared from NVX-144.HCl; salt formation with acids
Procedure: Thus, a series of experiments was conducted to assess the preparation of NVX-144 salts of acids other than hydrochloric acid as possible novel compounds better suited to pharmaceutical preparations. […] As expected, NVX-144 base readily formed salts with strong organic acids.
Although oxalic acid co-crystals are rare, Trask et al. have reported a co-crystal of caffeine with oxalic acid (see Trask et al., “Pharmaceutical Cocrystallization: Engineering a Remedy for Caffeine Hydration,” Crystal Growth & Design, 5, 1013-21 (2005)).
Thus NVX-144 would not be expected to form a salt with oxalic acid, a relatively strong dicarboxylic acid.

[3] = male, plasma, po, 20 mg/kg, Group 2, PO-Suspension 20 mg/kg, Mean N=3
[4] = male, plasma, po, 20 mg/kg, Group 2, PO-Suspension 20 mg/kg, individual animals
[5] = male, plasma, po, 20 mg/kg, Group 4, PO-Solution 20 mg/kg, Mean N=3
[6] = male, plasma, po, 20 mg/kg, Group 4, PO-Solution 20 mg/kg, individual animals
[7] = Group 2, PO-Suspension 20 mg/kg, Mean N=3, listed as NVX-144 Free Base
[8] = Group 2, PO-Suspension 20 mg/kg, individual animals, listed as NVX-144 Free Base
[9] = Group 4, PO-Solution 20 mg/kg, Mean N=3, listed as NVX-144 Free base
[10] = Group 4, PO-Solution 20 mg/kg, individual animals, listed as NVX-144 Free base

Structure (SMILES): O=C(NNc1nc2cc(F)ccc2n2cccc12)c1cnccn1 [NVX-144, N′-(7-fluoropyrrolo[1,2a]quinoxalin-4-yl)pyrazine-2-carbohydrazide, reference compound]
- concentration at 0.5 h ([1]; male, plasma, 20 mg/kg, Group 2, PO-Suspension 20 mg/kg, 0.5 hr, Mean): 479 ng/mL
- concentration at 0.5 h ([1]; male, plasma, 20 mg/kg, Group 2, PO-Suspension 20 mg/kg, 0.5 hr, individual animals): 436 ng/mL
- concentration at 1 h ([1]; male, plasma, 20 mg/kg, Group 2, PO-Suspension 20 mg/kg, 1 hr, Mean): 427 ng/mL
- concentration at 4 h ([1]; male, plasma, 20 mg/kg, Group 2, PO-Suspension 20 mg/kg, 4 hr, Mean): 227 ng/mL
- concentration at 4 h ([1]; male, plasma, 20 mg/kg, Group 2, PO-Suspension 20 mg/kg, 4 hr, individual animals): 270 ng/mL
- concentration at 8 h ([1]; male, plasma, 20 mg/kg, Group 2, PO-Suspension 20 mg/kg, 8 hr, Mean): 10.9 ng/mL
- concentration at 0.5 h ([1]; male, plasma, 20 mg/kg, Group 4, PO-Solution 20 mg/kg, 0.5 hr, Mean): 709 ng/mL
- concentration at 0.5 h ([1]; male, plasma, 20 mg/kg, Group 4, PO-Solution 20 mg/kg, 0.5 hr, individual animals): 691 ng/mL
- concentration at 1 h ([1]; male, plasma, 20 mg/kg, Group 4, PO-Solution 20 mg/kg, 1 hr, Mean): 643 ng/mL
- concentration at 1 h ([1]; male, plasma, 20 mg/kg, Group 4, PO-Solution 20 mg/kg, 1 hr, individual animals): 570 ng/mL
- concentration at 4 h ([1]; male, plasma, 20 mg/kg, Group 4, PO-Solution 20 mg/kg, 4 hr, Mean): 225 ng/mL
- concentration at 4 h ([1]; male, plasma, 20 mg/kg, Group 4, PO-Solution 20 mg/kg, 4 hr, individual animals): 289 ng/mL
- concentration at 8 h ([1]; male, plasma, 20 mg/kg, Group 4, PO-Solution 20 mg/kg, 8 hr, Mean): 31.5 ng/mL
- AUC [1, 3]: 1800 ng·h/mL
- AUC(0-inf) [1, 3]: 1830 ng·h/mL
- Cmax ([1]; male, plasma, po, 20 mg/kg, Group 2, PO-Suspension 20 mg/kg, Mean N=3, read-out: Cmax): 487 ng/mL
- half-life ([1]; male, plasma, po, 20 mg/kg, Group 2, PO-Suspension 20 mg/kg, Mean N=3, read-out: T ½ (converted)): 1.4 h
- Tmax ([1]; male, plasma, po, 20 mg/kg, Group 2, PO-Suspension 20 mg/kg, Mean N=3, read-out: Tmax): 0.67 h
- bioavailability ([1]; male, plasma, po, 20 mg/kg, Group 2, PO-Suspension 20 mg/kg, Mean N=3, versus mean IV AUCINF, read-out: Bioavailability): 34.7%
- AUC [1, 4]: 1690 ng·h/mL
- AUC(0-inf) [1, 4]: 1720 ng·h/mL
- Cmax ([1]; male, plasma, po, 20 mg/kg, Group 2, PO-Suspension 20 mg/kg, individual animals, read-out: Cmax): 436 ng/mL
- half-life ([1]; male, plasma, po, 20 mg/kg, Group 2, PO-Suspension 20 mg/kg, individual animals, read-out: T ½ (converted)): 1.66 h
- Tmax ([1]; male, plasma, po, 20 mg/kg, Group 2, PO-Suspension 20 mg/kg, individual animals, read-out: Tmax): 0.5 to 1 h
- bioavailability ([1]; male, plasma, po, 20 mg/kg, Group 2, PO-Suspension 20 mg/kg, individual animals, versus mean IV AUCINF, read-out: Bioavailability): 32.8%
- AUC [1, 5]: 2330 ng·h/mL
- AUC(0-inf) [1, 5]: 2520 ng·h/mL
- Cmax ([1]; male, plasma, po, 20 mg/kg, Group 4, PO-Solution 20 mg/kg, Mean N=3, read-out: Cmax): 714 ng/mL
- half-life ([1]; male, plasma, po, 20 mg/kg, Group 4, PO-Solution 20 mg/kg, Mean N=3, read-out: T ½ (converted)): 1.6 h
- Tmax ([1]; male, plasma, po, 20 mg/kg, Group 4, PO-Solution 20 mg/kg, Mean N=3, read-out: Tmax): 0.67 h
- bioavailability ([1]; male, plasma, po, 20 mg/kg, Group 4, PO-Solution 20 mg/kg, Mean N=3, versus mean IV AUCINF, read-out: Bioavailability): 46.1%
- AUC [1, 6]: 2500 ng·h/mL
- AUC(0-inf) [1, 6]: 2760 ng·h/mL
- Cmax ([1]; male, plasma, po, 20 mg/kg, Group 4, PO-Solution 20 mg/kg, individual animals, read-out: Cmax): 691 ng/mL
- Tmax ([1]; male, plasma, po, 20 mg/kg, Group 4, PO-Solution 20 mg/kg, individual animals, read-out: Tmax): 0.5 to 1 h
- bioavailability ([1]; male, plasma, po, 20 mg/kg, Group 4, PO-Solution 20 mg/kg, individual animals, versus mean IV AUCINF, read-out: Bioavailability): 52.6%
- plasma concentration ([1]; Group 2, PO-Suspension 20 mg/kg, 0.5 hr, individual animals, listed as NVX-144 Free Base): 428.07 ng/mL and 571.69 ng/mL
- plasma concentration ([1]; Group 2, PO-Suspension 20 mg/kg, 1 hr, individual animals, listed as NVX-144 Free Base): 282.56 ng/mL and 401.49 ng/mL and 597.75 ng/mL
- plasma concentration ([1]; Group 2, PO-Suspension 20 mg/kg, 4 hr, individual animals, listed as NVX-144 Free Base): 234.64 ng/mL and 175.82 ng/mL
- plasma concentration ([1]; Group 2, PO-Suspension 20 mg/kg, 8 hr, individual animals, listed as NVX-144 Free Base): 14.92 ng/mL and 12.33 ng/mL and 5.37 ng/mL
- AUC % Extrap ([1]; Group 2, PO-Suspension 20 mg/kg, Mean N=3): 1.32%
- AUCINF [1, 7]: 1826.45 ng·h/mL
- Cmax [1, 7]: 487.28 ng/mL
- T ½ [1, 7]: 1.39 h
- AUC % Extrap [1, 8]: 2.08% and 1.48% and 0.4%
- AUCINF [1, 8]: 1789.00 ng·h/mL and 1965.88 ng·h/mL
- AUCall [1, 8]: 1762.55 ng·h/mL and 1958.03 ng·h/mL
- Cmax [1, 8]: 428.07 ng/mL and 597.75 ng/mL
- T ½ [1, 8]: 1.49 h and 1.01 h
- Tmax [1, 8]: 0.5 h and 1.0 h
- bioavailability ([1]; Group 2, PO-Suspension 20 mg/kg, individual animals, versus mean IV AUCINF, listed as NVX-144 Free Base): 34.0% and 37.4%
- plasma concentration ([1]; Group 4, PO-Solution 20 mg/kg, 0.5 hr, individual animals, listed as NVX-144 Free Base): 610.62 ng/mL and 824.32 ng/mL
- plasma concentration ([1]; Group 4, PO-Solution 20 mg/kg, 1 hr, individual animals, listed as NVX-144 Free Base): 626.73 ng/mL and 731.54 ng/mL
- plasma concentration ([1]; Group 4, PO-Solution 20 mg/kg, 4 hr, individual animals, listed as NVX-144 Free Base): 163.62 ng/mL and 221.82 ng/mL
- plasma concentration ([1]; Group 4, PO-Solution 20 mg/kg, 8 hr, individual animals, listed as NVX-144 Free Base): 75.29 ng/mL and 5.57 ng/mL and 13.76 ng/mL
- AUC % Extrap ([1]; Group 4, PO-Solution 20 mg/kg, Mean N=3): 3.61%
- AUCINF [1, 9]: 2426.28 ng·h/mL
- Cmax [1, 9]: 713.93 ng/mL
- T ½ [1, 9]: 1.56 h
- AUC % Extrap [1, 10]: 9.41% and 0.41% and 1.00%
- AUCINF [1, 10]: 1994.04 ng·h/mL and 2521.47 ng·h/mL
- AUCall [1, 10]: 1985.89 ng·h/mL and 2496.24 ng·h/mL
- Cmax [1, 10]: 626.73 ng/mL and 824.32 ng/mL
- T ½ [1, 10]: 2.39 h and 1.01 h and 1.27 h
- Tmax [1, 10]: 0.5 h and 1.0 h
- bioavailability ([1]; Group 4, PO-Solution 20 mg/kg, individual animals, versus mean IV AUCINF, listed as NVX-144 Free base): 37.9% and 48.0%
- oral absorption ([1]; administered as a solution or suspension): moderate
- basicity [2]: very weak base
